Source: PubChem BioAssay (NCI)
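Five concentrations, 48 hours, 96-well plates. TGI marks complete inhibition of growth.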

Legend:
Test in all cases: NCI tumour cell line growth inhibition, 48 h
786-0 renal = test system: 786-0 renal
HCT-116 colon = test system: HCT-116 colon
HOP-62 NSCLC = test system: HOP-62 NSCLC
IGROV1 ovarian = test system: IGROV1 ovarian
MDA-N = test system: MDA-N
NCI/ADR-RES ovarian = test system: NCI/ADR-RES ovarian
OVCAR-5 ovarian = test system: OVCAR-5 ovarian
RXF 393 renal = test system: RXF 393 renal
SK-MEL-2 melanoma = test system: SK-MEL-2 melanoma

| Structure (SMILES) | TGI (786-0 renal) | TGI (HCT-116 colon) | TGI (HOP-62 NSCLC) | TGI (IGROV1 ovarian) | TGI (MDA-N) | TGI (NCI/ADR-RES ovarian) | TGI (OVCAR-5 ovarian) | TGI (RXF 393 renal) | TGI (SK-MEL-2 melanoma) |
| --- | --- | --- | --- | --- | --- | --- | --- | --- | --- |
| CN(C)N1C(=C(C#N)C#N)C(c2ccccc2)CC1C#N (stereo not drawn) | > 100 µM | > 100 µM | > 100 µM | > 100 µM | > 100 µM | > 100 µM | > 100 µM | > 100 µM | > 100 µM |
| CC1(N2CCOCC2)CC2C(=[N+]1[O-])CCC/C2=N/O (stereo not drawn) | > 100 µM | > 100 µM | > 100 µM | > 100 µM | > 100 µM | > 100 µM | > 100 µM | > 100 µM | > 100 µM |
| Cc1c2ccccc2c(/C=N/NC(=O)CSCC(=O)N/N=C/c2c3ccccc3c(C)c3ccccc23)c2ccccc12 | > 52.8 µM | > 100 µM | 36.1 µM | > 100 µM |  | > 100 µM | > 100 µM | 54.9 µM | > 100 µM |
| CCOC(=O)c1nc2ccccc2nc1Nc1cc(OC)c(OC)c(OC)c1 | > 100 µM | > 100 µM | > 100 µM | > 100 µM | > 100 µM | > 100 µM | > 100 µM |  | > 100 µM |
| CN(C)c1ccc(-c2c(C#N)c(-c3ccccc3)n(NS(=O)(=O)c3ccccc3)c(=O)c2C#N)cc1 | > 100 µM | > 100 µM | > 100 µM | > 100 µM | > 100 µM | > 100 µM | > 100 µM | > 100 µM | > 100 µM |
| N#C/C=C(/NC(=O)Nc1ccccc1)N1CCCC1 | > 100 µM | > 55.5 µM | > 35.8 µM | > 76.3 µM | > 100 µM | > 61.5 µM | > 100 µM | > 100 µM | > 52.6 µM |
| C#CCOC(=O)C=[N+]=[N-] | > 10 µM | > 10 µM | > 10 µM | > 10 µM | > 10 µM |  | > 10 µM | > 10 µM | > 10 µM |
| Cc1cccc(C)c1NC(=S)N/C=C(\C#N)C(N)=O | > 100 µM | > 100 µM | > 100 µM | > 100 µM | > 100 µM | > 100 µM | > 100 µM | > 100 µM | > 100 µM |
| COc1ccc(C2c3cc4c(cc3OC(N3CCOCC3)C2C)OCO4)cc1OC (stereo not drawn) | 53.8 µM | 50.8 µM | 72.6 µM | > 100 µM | 4.65 µM | 25.7 µM | > 100 µM | 25.4 µM | 61.8 µM |
| CCN(CC)C1=Nc2ccccc2-n2ccnc2C1 | > 100 µM | > 100 µM | > 100 µM | > 100 µM | > 100 µM | > 100 µM | > 100 µM | > 100 µM | > 100 µM |
| COC(=O)c1sc2nc(Nc3ccccc3)c(=Nc3ccccc3)sc2c1C | > 100 µM | > 100 µM | > 100 µM | > 100 µM | > 100 µM | > 100 µM | > 100 µM | 80.5 µM | > 100 µM |
| O=C(CSc1nc2ccccc2c(=O)n1-c1ccccc1)N=Nc1c(O)[nH]c2ccc(Br)cc12 | 4.33 µM |  | 7.07 µM | 5.03 µM | 16.9 µM | 22.9 µM | 8.53 µM | 7.68 µM | 47.1 µM |
| O=C1CC(Nc2ccccc2)c2c(Cl)sc(Cl)c21 (stereo not drawn) | 0.784 µM | 2.5 µM | 8.1 µM | 3.44 µM | 3.33 µM | 6.44 µM | 6.23 µM |  | 4.37 µM |
| O=[N+]([O-])C1=Cc2c(O)ccc(O)c2C2OC=CC12 (stereo not drawn) | 32.6 µM | 32.1 µM | 35.2 µM | 45.4 µM | 11.4 µM | 55.9 µM | 51.5 µM | 29.4 µM | 41 µM |
| OC1C2CN3CCN(C2)CC1(c1ccccc1)C3 (stereo not drawn) | > 100 µM | > 100 µM | > 100 µM | > 100 µM | > 100 µM | > 100 µM | > 100 µM | > 100 µM | > 100 µM |
| CC(C)(C)c1ccc(O)c(C(O)c2ccccn2)c1 (stereo not drawn) | > 100 µM | > 100 µM | > 100 µM |  | > 100 µM | > 100 µM | 89.6 µM | > 100 µM |  |
| COc1ccc(OC)c([N+](=O)[O-])c1-c1nc2sc(Cl)cn2c1/C=N/N=C(N)N | > 100 µM | > 100 µM | > 100 µM | 28.8 µM |  | > 100 µM | 71.7 µM | 48.3 µM | 38.8 µM |
| COc1cc(O)c2c(=O)c3cccc(C)c3[nH]c2c1 | > 10 µM | > 10 µM | > 10 µM | > 10 µM | > 10 µM | > 10 µM | > 10 µM | > 10 µM | > 10 µM |
| CN(C)CCNc1c(O)c2c(c(O)c1Cl)C(=O)C=CC2=O | 4.27 µM | 3.32 µM | 3.65 µM | 3 µM | 4.64 µM | 7.08 µM | 3.12 µM | 15.4 µM | 3.95 µM |
| O=S(=O)(O)c1cc(O)c(N=NC2S(=O)(=O)OCCOS2(=O)=O)c2ccccc12 | > 100 µM | > 100 µM | > 100 µM | > 100 µM | > 100 µM | > 100 µM | > 100 µM | > 100 µM | > 100 µM |
| O=C(Nc1ccc(Cl)cc1)c1cc(S(=O)(=O)Nc2nc3ncccc3[nH]2)c(SSc2cc(Cl)c(C(=O)Nc3ccc(Cl)cc3)cc2S(=O)(=O)Nc2nc3ncccc3[nH]2)cc1Cl | > 100 µM | > 100 µM | > 100 µM | > 100 µM | > 100 µM | > 100 µM | > 100 µM | > 100 µM | > 100 µM |
| C[C@]12CCC(=O)C=C1CC[C@@H]1[C@@H]2CC[C@]2(C)C(=O)/C(=C/c3ccc([N+](=O)[O-])cc3)C[C@@H]12 | > 100 µM | > 100 µM | > 100 µM | > 100 µM | > 100 µM | > 100 µM | > 100 µM | 73.5 µM | > 100 µM |
| CC1=C[C@H](C[C@]2(C)c3c(c4c(C)cccc4oc3=O)O[C@@H]2C)OC1=O | 50 µM | 30.3 µM | > 100 µM | > 100 µM | > 100 µM | > 100 µM | > 100 µM |  | > 100 µM |
